Assay results from patent US20110224210A1, “NOVEL BIS-AMIDES AS ANTI-MALARIAL AGENTS” (priority 2008, published 2011).

The compounds below were run on P. falciparum K1 (strain resistant to chloroquine and pyrimethamine), erythrocytic stages (assay: Plasmodium falciparum in vitro assay, [3H] hypoxanthine incorporation). Settings: Plasmodium falciparum, K1, P. falciparum strain K1; [3H] hypoxanthine incorporation; read-out: IC50 (nM) on K1.
Format: cell-based
Method: In Vitro Antimalarial Activity: Plasmodium falciparum In Vitro Assay
In vitro activity against erythrocytic stages of P. falciparum is determined using a [^3H] hypoxanthine incorporation assay. One strain resistant to chloroquine and pyrimethamine (P. falciparum K1) is used in the assays, and all test compounds are compared for activity with the standard drugs chloroquine (sigma C6628) and artemisinin (sigma-36, 159-3). Compounds are diluted in DMSO to 1 mM and added to parasite cultures incubated in RPMI 1640 medium without hypoxanthine, supplemented with HEPES (5.94 g/L), NaHCO3 (2.1 g/L), neomycin (100 U/mL), Albumax (5 g/L) and washed human red cells at 2.5% haematocrit (0.3% parasitaemia). Seven serial doubling dilutions of each compound are prepared in 96-well microtitre plates and incubated in a humidifying atmosphere at 37° C.; 4% CO2, 3% O2, 93% N2.
After 48 h, 50 μl of [3H] hypoxanthine (0.5 μCi) is added to each well of a plate. The plates are incubated for a further 24 h under the same conditions. The plates are then harvested with a Betaplate cell harvester (Wallac) and washed with distilled water. The dried filters are inserted into a plastic foil with 10 mL of scintillation fluid, and counted in a Betaplate liquid scintillation counter. IC50 values are calculated from sigmoidal inhibition curves using Microsoft Excel.

Row | SMILES | IC50 [nM]
1 | CN(C)C1CCN(C(=O)[C@H](Cc2ccccc2)N(Cc2ccc(-c3cncnc3)cc2)C(=O)C=Cc2ccc(C(F)(F)F)cn2)CC1 [Example 42, (S)-N-[1-Benzyl-2-(4-dimethylamino-piperidin-1-yl)-2-oxo-ethyl]-N-(4-pyrimidin-5-yl-benzyl)-3-(5-trifluoromethyl-pyridin-2-yl)-acrylamide] | 104
2 | Cc1c(C=CC(=O)N(Cc2ccc(-c3cncnc3)cc2)[C@@H](Cc2ccccc2)C(=O)N2CCC(N(C)C)CC2)cnn1C [Example 43, (S)-N-[1-Benzyl-2-(4-dimethylamino-piperidin-1-yl)-2-oxo-ethyl]-3-(1,5-dimethyl-1H-pyrazol-4-yl)-N-(4-pyrimidin-5-yl-benzyl)-acrylamide] | 354
3 | O=C([C@H](Cc1ccccc1)N(Cc1ccccn1)C(=O)C=Cc1ccc(C(F)(F)F)cc1)N1CCC(Cc2ccccc2)CC1 [Example 44, (S)-N-[1-Benzyl-2-(4-benzyl-piperidin-1-yl)-2-oxo-ethyl]-N-pyridin-2-ylmethyl-3-(4-trifluoromethyl-phenyl)-acrylamide] | 14
4 | O=C([C@H](Cc1ccccc1)N(Cc1ccccc1)C(=O)C=Cc1ccc(C(F)(F)F)cc1)N1CCC(Cc2ccccc2)CC1 [Example 45, (S)-N-Benzyl-N-[1-benzyl-2-(4-benzyl-piperidin-1-yl)-2-oxo-ethyl]-3-(4-trifluoromethyl-phenyl)-acrylamide] | 4
5 | O=C([C@H](Cc1ccccc1)N(Cc1ccc(-c2ccccn2)cc1)C(=O)C=Cc1ccc(C(F)(F)F)cc1)N1CCC(Cc2ccccc2)CC1 [Example 46, (S)-N-[1-Benzyl-2-(4-benzyl-piperidin-1-yl)-2-oxo-ethyl]-N-(4-pyridin-2-yl-benzyl)-3-(4-trifluoromethyl-phenyl)-acrylamide] | 1
6 | O=C([C@H](Cc1ccccc1)N(Cc1ccccc1)C(=O)C=Cc1ccc(C(F)(F)F)nc1)N1CCC(Cc2ccccc2)CC1 [Example 48, (S)-N-Benzyl-N-[1-benzyl-2-(4-benzyl-piperidin-1-yl)-2-oxo-ethyl]-3-(6-trifluoromethyl-pyridin-3-yl)-acrylamide] | 8
7 | O=C([C@H](Cc1ccccc1)N(Cc1ccc(-c2ccccn2)cc1)C(=O)C=Cc1ccc(C(F)(F)F)cc1)N1CCC(CN2CCCC2)CC1 [Example 52, (S)-N-[1-Benzyl-2-oxo-2-(4-pyrrolidin-1-ylmethyl-piperidin-1-yl)-ethyl]-N-(4-pyridin-2-yl-benzyl)-3-(4-trifluoromethyl-phenyl)-acrylamide] | 92
8 | CN(C)[C@@H]1CCN(C(=O)[C@H](Cc2ccccc2)N(Cc2ccc(-c3ccccn3)cc2)C(=O)C=Cc2ccc(C(F)(F)F)cc2)C1 [Example 53, N-[(S)-1-Benzyl-2-((R)-3-dimethylamino-pyrrolidin-1-yl)-2-oxo-ethyl]-N-(4-pyridin-2-yl-benzyl)-3-(4-trifluoromethyl-phenyl)-acrylamide] | 14
9 | CN(C)[C@H]1CCN(C(=O)[C@H](Cc2ccccc2)N(Cc2ccc(-c3ccccn3)cc2)C(=O)C=Cc2ccc(C(F)(F)F)cc2)C1 [Example 54, N-[(S)-1-Benzyl-2-((S)-3-dimethylamino-pyrrolidin-1-yl)-2-oxo-ethyl]-N-(4-pyridin-2-yl-benzyl)-3-(4-trifluoromethyl-phenyl)-acrylamide] | 17
10 | O=C([C@H](Cc1ccccc1)N(Cc1ccc(-c2cncnc2)cc1)C(=O)C=Cc1ccc(C(F)(F)F)cc1)N1CCc2ccccc21 [Example 57, (S)-N-[1-Benzyl-2-(2,3-dihydro-indol-1-yl)-2-oxo-ethyl]-N-(4-pyrimidin-5-yl-benzyl)-3-(4-trifluoromethyl-phenyl)-acrylamide] | 89
11 | O=C([C@H](Cc1ccccc1)N(Cc1ccc(-c2ccccn2)cc1)C(=O)C=Cc1ccc(C(F)(F)F)nc1)N1Cc2ccccc2C1 [Example 58, (S)-N-[1-Benzyl-2-(1,3-dihydro-isoindol-2-yl)-2-oxo-ethyl]-N-(4-pyridin-2-yl-benzyl)-3-(6-trifluoromethyl-pyridin-3-yl)-acrylamide] | 50
12 | COCCN(C)C(=O)[C@H](Cc1ccccc1)N(Cc1ccc(N2CCOCC2)cc1)C(=O)C=Cc1cc(C)nn1C [Example 59, (S)-3-(2,5-Dimethyl-2H-pyrazol-3-yl)-N-{1-[(2-methoxy-ethyl)-methyl-carbamoyl]-2-phenyl-ethyl}-N-(4-morpholin-4-yl-benzyl)-acrylamide] | 121
13 | COCCN(C)C(=O)[C@H](Cc1ccccc1)N(Cc1ccc(N2CCOCC2)cc1)C(=O)C=Cc1cnc(C)n1C [Example 61, (S)-3-(2,3-Dimethyl-3H-imidazol-4-yl)-N-{1-[(2-methoxy-ethyl)-methyl-carbamoyl]-2-phenyl-ethyl}-N-(4-morpholin-4-yl-benzyl)-acrylamide] | 464
14 | COCCN(C)C(=O)[C@H](Cc1ccccc1)N(Cc1ccc(N2CCOCC2)cc1)C(=O)C=Cc1c(C)noc1C [Example 64, (S)-3-(3,5-Dimethyl-isoxazol-4-yl)-N-{1-[(2-methoxy-ethyl)-methyl-carbamoyl]-2-phenyl-ethyl}-N-(4-morpholin-4-yl-benzyl)-acrylamide] | 180
15 | COCCN(C)C(=O)[C@H](Cc1ccccc1)N(Cc1ccc(N2CCOCC2)cc1)C(=O)C=Cc1nc(C)oc1C [Example 65, (S)-3-(2,5-Dimethyl-oxazol-4-yl)-N-{1-[(2-methoxy-ethyl)-methyl-carbamoyl]-2-phenyl-ethyl}-N-(4-morpholin-4-yl-benzyl)-acrylamide] | 269

More lines, in order of falling IC50, values ahead:

Row | IC50 [nM] | SMILES
16 | 490 | CN(C)C1CCN(C(=O)[C@H](Cc2ccccc2)N(Cc2ccc(-c3cncnc3)cc2)C(=O)C=Cc2ccc(Cl)nc2)CC1 [Example 40, (S)-N-[1-Benzyl-2-(4-dimethylamino-piperidin-1-yl)-2-oxo-ethyl]-3-(6-chloro-pyridin-3-yl)-N-(4-pyrimidin-5-yl-benzyl)-acrylamide]
17 | 169 | COc1ccc(C=CC(=O)N(Cc2ccc(-c3cncnc3)cc2)[C@@H](Cc2ccccc2)C(=O)N2CCC(N(C)C)CC2)cn1 [Example 41, (S)-N-[1-Benzyl-2-(4-dimethylamino-piperidin-1-yl)-2-oxo-ethyl]-3-(6-methoxy-pyridin-3-yl)-N-(4-pyrimidin-5-yl-benzyl)-acrylamide]
18 | 138 | COCCN(C)C(=O)[C@H](Cc1ccccc1)N(Cc1ccc(N2CCOCC2)cc1)C(=O)C=Cc1csc(C)n1 [Example 62, (S)-N-{1-[(2-Methoxy-ethyl)-methyl-carbamoyl]-2-phenyl-ethyl}-3-(2-methyl-thiazol-4-yl)-N-(4-morpholin-4-yl-benzyl)-acrylamide]
19 | 90 | CN(C)CC1CCN(C(=O)[C@H](Cc2ccccc2)N(Cc2ccc(-c3ccccn3)cc2)C(=O)C=Cc2ccc(C(F)(F)F)nc2)CC1 [Example 51, (S)-N-[1-Benzyl-2-(4-dimethylaminomethyl-piperidin-1-yl)-2-oxo-ethyl]-N-(4-pyridin-2-yl-benzyl)-3-(6-trifluoromethyl-pyridin-3-yl)-acrylamide]
20 | 87 | COCCN(C)C(=O)[C@H](Cc1ccccc1)N(Cc1ccc(N2CCOCC2)cc1)C(=O)C=Cc1sc(C)nc1C [Example 63, (S)-3-(2,4-Dimethyl-thiazol-5-yl)-N-{1-[(2-methoxy-ethyl)-methyl-carbamoyl]-2-phenyl-ethyl}-N-(4-morpholin-4-yl-benzyl)-acrylamide]
21 | 65 | CN(C)[C@@H]1CCN(C(=O)[C@H](Cc2ccccc2)N(Cc2ccc(-c3ccccn3)cc2)C(=O)C=Cc2ccc(C(F)(F)F)nc2)C1 [Example 55, N-[(S)-1-Benzyl-2-((R)-3-dimethylamino-pyrrolidin-1-yl)-2-oxo-ethyl]-N-(4-pyridin-2-yl-benzyl)-3-(6-trifluoromethyl-pyridin-3-yl)-acrylamide]
22 | 58 | CN(C)[C@H]1CCN(C(=O)[C@H](Cc2ccccc2)N(Cc2ccc(-c3ccccn3)cc2)C(=O)C=Cc2ccc(C(F)(F)F)nc2)C1 [Example 56, N-[(S)-1-Benzyl-2-((S)-3-dimethylamino-pyrrolidin-1-yl)-2-oxo-ethyl]-N-(4-pyridin-2-yl-benzyl)-3-(6-trifluoromethyl-pyridin-3-yl)-acrylamide]
23 | 48 | COCCN(C)C(=O)[C@H](Cc1ccccc1)N(Cc1ccc(N2CCOCC2)cc1)C(=O)C=Cc1c(C)nn(C)c1C [Example 60, (S)-N-{1-[(2-Methoxy-ethyl)-methyl-carbamoyl]-2-phenyl-ethyl}-N-(4-morpholin-4-yl-benzyl)-3-(1,3,5-trimethyl-1H-pyrazol-4-yl)-acrylamide]
24 | 13 | O=C([C@H](Cc1ccccc1)N(Cc1ccc(-c2ccccn2)cc1)C(=O)C=Cc1ccc(C(F)(F)F)nc1)N1CCC(c2ccccc2)CC1 [Example 50, (S)-N-[1-Benzyl-2-oxo-2-(4-phenyl-piperidin-1-yl)-ethyl]-N-(4-pyridin-2-yl-benzyl)-3-(6-trifluoromethyl-pyridin-3-yl)-acrylamide]
25 | 1 | O=C([C@H](Cc1ccccc1)N(Cc1ccc(-c2cccnc2)cc1)C(=O)C=Cc1ccc(C(F)(F)F)nc1)N1CCC(Cc2ccccc2)CC1 [Example 47, (S)-N-[1-Benzyl-2-(4-benzyl-piperidin-1-yl)-2-oxo-ethyl]-N-(4-pyridin-3-yl-benzyl)-3-(6-trifluoromethyl-pyridin-3-yl)-acrylamide]
